For one test, the target named is TDP-43 1-260 (Homo sapiens, UniProt Q13148). Kind of test: TDP-43 alpha-screen assay with bt-TAR32. It is filed as binding. Particulars: bt-TAR32 0.125 nM; 3 h at room temperature; read-out: Activity (μM) in the TDP-43-DNA alpha-screen assay. On the technique in general: Alpha assays give light when donor and acceptor beads are brought close together.
TDP-43 1-260, sequence (Q13148 1-260): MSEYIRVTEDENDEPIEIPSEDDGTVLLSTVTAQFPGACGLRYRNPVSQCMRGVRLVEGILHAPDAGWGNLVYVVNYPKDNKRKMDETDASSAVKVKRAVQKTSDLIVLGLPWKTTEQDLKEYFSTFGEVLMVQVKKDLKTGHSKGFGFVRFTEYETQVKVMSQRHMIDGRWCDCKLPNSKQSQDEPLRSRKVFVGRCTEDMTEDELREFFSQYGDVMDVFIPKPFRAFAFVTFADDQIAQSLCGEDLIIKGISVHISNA
Method: Alpha-screen assay. […] Briefly, assays contained TDP-43 1-260 (15 ng/mL, 0.27 nM), 10 mg/mL of both streptavidin donor beads and anti-GST acceptor beads with various concentrations of bt-TAR32 (˜18 to +14 in the HIV1 LTR) and test compound in a final volume of 20 mL of 25 mM Tris, 0.1% CHAPS, pH 7.4 in white, opaque low volume 384-well plates. After 3 h incubation at room temperature, the AlphaScreen signal was measured using a Synergy 2 plate reader (Biotek, Winooski, VT). […] Nonspecific binding was determined in the presence of 10 mM bt-TDP43 and was less than 10% of total binding. IC50 values were obtained from nonlinear regression fits of the data to a one-site binding model using Graph Pad Prism, version 5.0 (GraphPad Software, San Diego, CA). Comparison of competitive inhibition and mixed type inhibition models were evaluated using the F-test on global fits of the data also in Graph Pad Prism, version 5.0.
“6-(4-(2-(pyrrolidin-1-yl)ethoxy)phenyl)-N-(piperidin-4-yl)-1H-indazol-3-amine [Example 95]”: the IC50 was 2.4 µM.

For the molecule `CN(CCCN)CCCNc1cc(-c2ccc(N3CCNCC3)cc2)nc(-c2ccc(N3CCNCC3)cc2)c1` [Example 1], the IC50 came out at 0.02 µM.

Regarding `COc1ccc(-c2cc(NCCCN(C)CCCN)cc(-c3ccc(N4CCNCC4)cc3)n2)cc1` [Example 2, N-{3-[(3-aminopropyl)(methyl)amino]propyl}-2-(4-methoxyphenyl)-6-[4-(piperazin-1-yl)phenyl]pyridin-4-amine], the IC50 is 0.03 µM.

Turning to `COc1ccc(-c2cc(NC3CCN(C4CCC(N)CC4)CC3)cc(-c3ccc(N4CCNCC4)cc3)n2)cc1` (stereo not shown) [Example 3], the IC50 was determined as 0.03 µM.

For the molecule `CN(CCCN)CCCNc1cc(-c2ccc(N3CCNCC3)cc2)nc(-c2ccc(N3CCNCC3)nc2)c1` [Example 4], the IC50 was determined as 0.04 µM.

In the case of `COc1ccc(-c2cc(NC3CCN(CCCN)CC3)cc(-c3ccc(N4CCN(C)CC4)cc3)n2)cc1` [Example 5, N-(1-(3-aminopropyl)piperidin-4-yl)-2-(4-methoxyphenyl)-6-(4-(4-methylpiperazin-1-yl)phenyl)pyridin-4-amine], the IC50 was found to be 0.04 µM.

Consider `COc1ccc(-c2cc(NCCCNC3CC(N)C3)cc(-c3ccc(N4CCNCC4)cc3)n2)cc1` (stereo not shown) [Example 6], for which the IC50 stood at 0.04 µM.

In the case of `COc1ccc(-c2cc(NCCCN(C)CCCN)cc(-c3cccc(N4CCNCC4)c3)n2)cc1` [Example 7, N-{3-[(3-aminopropyl)(methyl)amino]propyl}-2-(4-methoxyphenyl)-6-[3-(piperazin-1-yl)phenyl]pyridin-4-amine], the IC50 was 0.05 µM.

Take `CN(CCCN)CCCNc1cc(-c2ccc(C3CCNCC3)cc2)nc(-c2ccc(N3CCNCC3)cc2)c1` [Example 8]: the IC50 came to 0.05 µM.

Turning to `COc1ccc(-c2cc(NC3CCNCC3)cc(-c3ccc(N4CCN(C)CC4)cc3)n2)cc1` [Example 9, 2-(4-methoxyphenyl)-6-(4-(4-methylpiperazin-1-yl)phenyl)-N-(piperidin-4-yl)pyridin-4-amine], the IC50 is 0.05 µM.

`COc1ccc(-c2cc(NCCCN(C)CCCN)cc(-c3ccc(N4CCN(CC5CC5)CC4)cc3)n2)cc1` [Example 10]: the IC50 was 0.06 µM.

In the case of `CN(CCCN)CCCNc1cc(C#CC2CCNCC2)nc(-c2ccc(N3CCNCC3)cc2)c1` [Example 11, N-{3-[(3-aminopropyl)(methyl)amino]propyl}-2-[4-(piperazin-1-yl)phenyl]-6-[2-(piperidin-4-yl)ethynyl]pyridin-4-amine], the IC50 was found to be 0.06 µM.

In the case of `COc1ccc(-c2cc(NC3CCN(CC4CNC4)CC3)cc(-c3ccc(N4CCN(C)CC4)cc3)n2)cc1` [Example 12, N-(1-(azetidin-3-ylmethyl)piperidin-4-yl)-2-(4-methoxyphenyl)-6-(4-(4-methylpiperazin-1-yl)phenyl)pyridin-4-amine], the IC50 came to 0.06 µM.

Turning to `COc1ccc(-c2cc(NCCCN(C)CCCN)cc(-c3cnn(C4CCN(C)CC4)c3)n2)cc1` [Example 13, N-{3-[(3-aminopropyl)(methyl)amino]propyl}-2-(4-methoxyphenyl)-6-[1-(1-methylpiperidin-4-yl)-1H-pyrazol-4-yl]pyridin-4-amine], the IC50 stood at 0.065 µM.

Regarding `COc1ccc(-c2cc(NCCCN(C)CCCN)cc(-c3ccc(N4CCN(CC5CNC5)CC4)cc3)n2)cc1` [Example 14], the IC50 is 0.07 µM.

Regarding `CN(CCCN)CCCNc1cc(-c2ccc(CN3CCNCC3)cc2)nc(-c2ccc(N3CCNCC3)cc2)c1` [Example 16], the IC50 is 0.07 µM.

On to `COc1ccc(-c2cc(NCCCN3CCC(CN)CC3)cc(-c3ccc(N4CCNCC4)cc3)n2)cc1` [Example 18], for which the IC50 came to 0.07 µM.

`CNc1ccc(-c2cc(NCCCN(C)CCCN)cc(-c3ccc(OC)cc3)n2)cc1` [Example 19]: the IC50 is 0.08 µM.

Turning to `COc1ccc(-c2cc(NCCCN(C)CCCN)cc(-c3ccc(CN4CCNCC4)cc3)n2)cc1` [Example 20], the IC50 was 0.08 µM.

On to `COc1ccc(-c2cc(NCC3CCN(CC4CCNC4)C3)cc(-c3ccc(N4CCN(C)CC4)cc3)n2)cc1` (stereo not shown) [Example 21], for which the IC50 came to 0.08 µM.

Consider `COc1ccc(-c2cc(NCC3CCN(C4CCNCC4)C3)cc(-c3ccc(N4CCN(C)CC4)cc3)n2)cc1` (stereo not shown) [Example 22], for which the IC50 stood at 0.08 µM.

Take `COc1ccc(-c2cc(NCCCN(C)CCCN)cc(-c3ccc(N4CCN(C)CC4)cc3)n2)cc1` [Example 23]: the IC50 came to 0.08 µM.

Turning to `COc1ccc(-c2cc(NCCCN(C)CCCN)cc(-c3ccc(CN4CCCC4)cc3)n2)cc1` [Example 24], the IC50 worked out at 0.09 µM.

For `COc1ccc(-c2cc(NCC3CCN(CC4CCNC4)CC3)cc(-c3ccc(N4CCN(C)CC4)cc3)n2)cc1` (stereo not shown) [Example 25], the IC50 came to 0.09 µM.

For `COc1ccc(-c2cc(NCCCN3CCC(CN)C3)cc(-c3ccc(N4CCNCC4)cc3)n2)cc1` (stereo not shown) [Example 26], the IC50 was 0.1 µM.

In the case of `COc1ccc(-c2cc(NC3CCN(C4CCN(C)CC4)CC3)cc(-c3ccc(N4CCNCC4)cc3)n2)cc1` [Example 27, N-(2-(4-methoxyphenyl)-6-(4-(piperazin-1-yl)phenyl)pyridin-4-yl)-1′-methyl-[1,4′-bipiperidin]-4-amine], the IC50 stood at 0.11 µM.

As for `CN(CCCN)CCCNc1cc(-c2ccc(N3CCNCC3)cc2)nc(-c2ccc3c(c2)CCNC3)c1` [Example 28], the IC50 turned out to be 0.11 µM.

Regarding `COc1ccc(-c2cc(NCC3CCN(CC4CNC4)CC3)cc(-c3ccc(N4CCN(C)CC4)cc3)n2)cc1` [Example 29], the IC50 turned out to be 0.11 µM.

Take `COc1ccc(-c2cc(NC3CCN(CC4CCNC4)CC3)cc(-c3ccc(N4CCNCC4)cc3)n2)cc1` (stereo not shown) [Example 30]: the IC50 turned out to be 0.12 µM.

Consider `COc1ccc(-c2cc(NCCCN)cc(-c3ccc(N4CCNCC4)cc3)n2)cc1` [Example 31, N^1-(2-(4-methoxyphenyl)-6-(4-(piperazin-1-yl)phenyl)pyridin-4-yl)propane-1,3-diamine], for which the IC50 was found to be 0.12 µM.

Regarding `COc1ccc(-c2cc(NCCCN(C)CCCN)cc(-c3ccc(N4CCN(C)CC4)cc3)n2)cc1` [Example 32], the IC50 was 0.13 µM.

For `COc1ccc(-c2cc(NCCCN(C)CCCN)cc(-c3ccc(-c4ccncc4)cc3)n2)cc1` [Example 33], the IC50 was 0.13 µM.

Turning to `COc1ccc(-c2cc(NCC3CCN(CC4CNC4)C3)cc(-c3ccc(N4CCN(C)CC4)cc3)n2)cc1` (stereo not shown) [Example 34], the IC50 stood at 0.14 µM.

Regarding `COc1ccc(-c2cc(NCCCN(C)CCCN)cc(-c3ccc(OCCCN(C)C)nc3)n2)cc1` [Example 35, N-{3-[(3-aminopropyl)(methyl)amino]propyl}-6′-[3-(dimethylamino)propoxy]-6-(4-methoxyphenyl)-[2,3′-bipyridin]-4-amine], the IC50 came to 0.15 µM.

As to `COc1ccc(-c2cc(NC3CCN(C4CCN(C)CC4)CC3)cc(-c3ccc(N4CCNCC4)cc3)n2)cc1` [Example 36], the IC50 was determined as 0.15 µM.

Turning to `COc1ccc(-c2cc(NCCCN(C)CCCN)cc(OCCN3CCCC3)n2)cc1` [Example 37, N-{3-[(3-aminopropyl)(methyl)amino]propyl}-2-(4-methoxyphenyl)-6-[2-(pyrrolidin-1-yl)ethoxy]pyridin-4-amine], the IC50 was determined as 0.16 µM.

As to `COc1ccc(-c2cc(NCCCN(C)CCCN)cc(-c3ccc(N4CCN(C(=O)OC(C)(C)C)CC4)cc3)n2)cc1` [Example 38], the IC50 stood at 0.17 µM.

As to `COc1ccc(-c2cc(NC3CCNCC3)cc(-c3ccc(N4CCNCC4)cc3)n2)cc1` [Example 39], the IC50 was 0.19 µM.

With `COc1ccc(-c2cc(NCCCN(C)C)cc(-c3ccc(N4CCN(C)CC4)cc3)n2)cc1` [Example 40], the IC50 came to 0.21 µM.

In the case of `COc1ccc(-c2cc(N(C)C3CCNCC3)cc(-c3ccc(N4CCNCC4)cc3)n2)cc1` [Example 41], the IC50 is 0.33 µM.

Turning to `COc1ccc(-c2cc(N(C)CCCN(C)C)cc(-c3ccc(N4CCN(C)CC4)cc3)n2)cc1` [Example 42, N-(3-(dimethylamino)propyl)-2-(4-methoxyphenyl)-N-methyl-6-(4-(4-methylpiperazin-1-yl)phenyl)pyridin-4-amine], the IC50 worked out at 0.46 µM.

On to `COc1ccc(-c2cc(NCCCN)cc(-n3cc4c(n3)CNC4)n2)cc1` [Example 43], for which the IC50 stood at 0.46 µM.

`CN(C)CCCNc1cc(-c2ccc(N3CCNCC3)cc2)nc(-c2ccc(N3CCCC3)nc2)c1` [Example 44]: the IC50 came out at 7.95 µM.

Turning to `CN1CCN(c2cncc(-c3cc(NCCCN)cc(-c4ccc(N5CCNCC5)cc4)n3)c2)CC1` [Example 45], the IC50 turned out to be 1.07 µM.

As to `COc1ccc(-c2cc(NCCCN3CCCCC3)cc(-c3cc(OC)cc(OC)c3)n2)cc1` [Example 46], the IC50 is 6.93 µM.

`COc1ccc(-c2cc(NCCCN(C)CCCN)cc(-c3c(C)noc3C)n2)cc1` [Example 47]: the IC50 is 4.64 µM.

With `COc1ccc(-c2cc(NCCCc3cnc[nH]3)cc(-c3ccc(N4CCN(C)CC4)cc3)n2)cc1` [Example 48], the IC50 turned out to be 3.77 µM.

Turning to `CCOC(=O)N1CCC(Nc2cc(-c3ccc(OC)cc3)nc(-c3ccc(N4CCNCC4)cc3)c2)CC1` [Example 50], the IC50 was determined as 9.49 µM.

For `COc1cccc(-c2cc(NCCCN(C)CCCN)cc(-c3ccc(N4CCNCC4)cc3)n2)c1` [Example 51], the IC50 worked out at 0.64 µM.

Consider `COc1ccc(-c2cc(NCCCN(C)CCCN)cc(-c3cnc(N4CCOCC4)s3)n2)cc1` [Example 52, N^1-(3-aminopropyl)-N^3-(2-(4-methoxyphenyl)-6-(2-morpholinothiazol-5-yl)pyridin-4-yl)-N^1-methylpropane-1,3-diamine], for which the IC50 is 5.58 µM.

Regarding `CNS(=O)(=O)c1ccc(-c2cc(NCCCN(C)CCCN)cc(-c3ccc(OC)cc3)n2)cc1` [Example 53], the IC50 was 4.17 µM.

Take `COc1ccc(-c2cc(NC3(CCN)CC3)cc(-c3ccc(N4CCNCC4)cc3)n2)cc1` [Example 54]: the IC50 was found to be 3.56 µM.

As to `COc1ccc(-c2cc(NCC3CCNC3)cc(-c3ccc(N4CCN(C)CC4)cc3)n2)cc1` (stereo not shown) [Example 55], the IC50 came to 3.56 µM.

Still in this test, the particulars now being: same alpha-screen assay using bt-TAR32, side-by-side, three independent assays; average.
In the case of `COc1ccc(-c2cc(NC3CCN(C4CCC(N)CC4)CC3)cc(-c3ccc(N4CCNCC4)cc3)n2)cc1` (stereo not shown) [Example 3], the “increase in potency versus Compound I (average)” value worked out at 14 X.

Still in this test, the particulars now being: same alpha-screen assay using bt-TAR32, side-by-side, three independent assays; range.
Consider `COc1ccc(-c2cc(NC3CCN(C4CCC(N)CC4)CC3)cc(-c3ccc(N4CCNCC4)cc3)n2)cc1` (stereo not shown) [Example 3], for which the “increase in potency versus Compound I” value was 11-18 X.

(Values after patent US20240148722A1, “SMALL MOLECULES THAT BIND TO TDP-43 FOR THE TREATMENT OF ALS AND RELATED DISORDERS” (Biohaven Therapeutics Ltd., priority 2021, published 2024).)
